The text below walks through data of ChEMBL document CHEMBL5665443, “Enzyme Inhibitor Single Concentration assay results for EUbOPEN Chemogenomics Library” (2024).

Assay [1] deals with DNA-3-methyladenine glycosylase (Homo sapiens) (UniProt P29372). The following applies: Compound Concentration 10.0 uM, Hit No.
Description: Inhibition of MPG by quantifying inhibition of MPG-mediated cleavage and dissociation of quenched duplex DNA oligonucleotides, measured as fluorescence at 594 nm. To generate a functional strand incision and increase turn-over this assay is coupled to APE1.
The target of assay [2] is T1, Adenine DNA glycosylase (Homo sapiens) (UniProt Q9UIF7).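 Also: human MUTYH activity read as 594 nm fluorescence from cleavage and release of a quenched DNA duplex, coupled with APE1 for strand incision, lower signal meaning inhibition.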
T1 sequence (whole entry): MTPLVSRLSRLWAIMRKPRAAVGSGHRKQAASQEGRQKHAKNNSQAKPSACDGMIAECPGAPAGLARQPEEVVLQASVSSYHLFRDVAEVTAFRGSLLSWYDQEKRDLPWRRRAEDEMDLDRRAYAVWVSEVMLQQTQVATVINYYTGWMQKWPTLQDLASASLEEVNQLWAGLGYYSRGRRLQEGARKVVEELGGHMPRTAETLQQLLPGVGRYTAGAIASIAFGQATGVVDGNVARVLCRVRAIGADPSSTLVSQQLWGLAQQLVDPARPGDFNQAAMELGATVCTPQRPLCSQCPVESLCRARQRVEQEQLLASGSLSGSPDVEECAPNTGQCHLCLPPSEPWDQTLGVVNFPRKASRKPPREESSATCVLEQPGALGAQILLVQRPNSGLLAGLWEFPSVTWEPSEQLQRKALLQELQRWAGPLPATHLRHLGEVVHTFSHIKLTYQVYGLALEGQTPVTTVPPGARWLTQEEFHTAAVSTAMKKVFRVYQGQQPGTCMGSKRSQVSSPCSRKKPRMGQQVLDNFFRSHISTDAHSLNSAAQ
The following applies: Compound Concentration 10.0 uM, Hit No.
Description: Inhibition of MUTYH by quantifying inhibition of MUTYH-mediated cleavage and dissociation of quenched duplex DNA oligonucleotides, measured as fluorescence at 594 nm. To generate a functional strand incision and increase turn-over this assay is coupled to APE1.

Assay [3] deals with T2, Endonuclease 8-like 2 (Homo sapiens) (UniProt Q969S2).
T2 sequence (whole entry): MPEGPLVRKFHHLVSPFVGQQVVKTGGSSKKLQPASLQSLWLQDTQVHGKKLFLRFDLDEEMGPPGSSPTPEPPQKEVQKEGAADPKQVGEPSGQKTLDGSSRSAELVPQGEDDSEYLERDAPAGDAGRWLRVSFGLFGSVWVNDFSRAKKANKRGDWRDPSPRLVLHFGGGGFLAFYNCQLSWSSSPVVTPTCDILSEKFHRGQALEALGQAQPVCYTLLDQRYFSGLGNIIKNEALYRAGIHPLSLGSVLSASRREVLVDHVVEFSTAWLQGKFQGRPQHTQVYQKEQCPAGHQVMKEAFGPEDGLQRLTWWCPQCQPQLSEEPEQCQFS
The conditions noted are these: Compound Concentration 10.0 uM.
Description: Inhibition of NEIL2 by quantifying inhibition of NEIL2-mediated cleavage and dissociation of quenched duplex DNA oligonucleotides, measured as fluorescence at 594 nm.

Assay [4] deals with Uracil-DNA glycosylase (Homo sapiens) (UniProt P13051). The following applies: Compound Concentration 10.0 uM, Hit No.
Description: Inhibition of UNG by quantifying inhibition of UNG-mediated cleavage and dissociation of quenched duplex DNA oligonucleotides, measured as fluorescence at 594 nm. To generate a functional strand incision and increase turn-over this assay is coupled to APE1.
In assay [5] the target is N-glycosylase/DNA lyase (Homo sapiens) (UniProt O15527). The conditions noted are these: Compound Concentration 10.0 uM, Hit No.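 Also: OGG1 cleavage of a quenched duplex DNA oligonucleotide, coupled to APE1 for strand incision, read as fluorescence at 594 nm.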
Description: Inhibition of OGG1 by quantifying inhibition of OGG1-mediated cleavage and dissociation of quenched duplex DNA oligonucleotides, measured as fluorescence at 594 nm. To generate a functional strand incision and increase turn-over this assay is coupled to APE1.
Assay [6] addresses T3, Endonuclease III-like protein 1 (Homo sapiens) (UniProt P78549).
T3 sequence (whole entry): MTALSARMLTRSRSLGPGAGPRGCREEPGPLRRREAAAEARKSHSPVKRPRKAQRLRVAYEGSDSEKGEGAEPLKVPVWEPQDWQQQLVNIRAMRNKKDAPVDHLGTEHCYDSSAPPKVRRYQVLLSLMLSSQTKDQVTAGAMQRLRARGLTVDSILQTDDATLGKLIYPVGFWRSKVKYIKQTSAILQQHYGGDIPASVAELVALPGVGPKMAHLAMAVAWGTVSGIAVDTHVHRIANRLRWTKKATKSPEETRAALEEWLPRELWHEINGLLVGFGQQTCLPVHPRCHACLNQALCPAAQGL
The conditions noted are these: Compound Concentration 10.0 uM, Hit No.
Description: Inhibition of NTHL1 by quantifying inhibition of NTHL1-mediated cleavage and dissociation of quenched duplex DNA oligonucleotides, measured as fluorescence at 594 nm.

For assay [7], the target named is Methyl-CpG-binding domain protein 4 (Homo sapiens) (UniProt O95243). The following applies: Compound Concentration 10.0 uM, Hit No.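 Also: MBD4 activity read as fluorescence at 594 nm from cleavage and release of a quenched duplex DNA oligonucleotide, with APE1 coupled to incise the strand and raise turnover.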
Description: Inhibition of MBD4 by quantifying inhibition of MBD4-mediated cleavage and dissociation of quenched duplex DNA oligonucleotides, measured as fluorescence at 594 nm. To generate a functional strand incision and increase turn-over this assay is coupled to APE1.
Assay [8] deals with Endonuclease 8-like 1 (Homo sapiens) (UniProt Q96FI4). The conditions noted are these: Compound Concentration 10.0 uM, Hit No.
Description: Inhibition of NEIL1 by quantifying inhibition of NEIL1-mediated cleavage and dissociation of quenched duplex DNA oligonucleotides, measured as fluorescence at 594 nm.
Assay [9] has as its target G/T mismatch-specific thymine DNA glycosylase (Homo sapiens) (UniProt Q13569). The following applies: Compound Concentration 10.0 uM, Hit No.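 Also: human TDG cleavage of quenched duplex DNA oligonucleotides coupled to APE1, strand release read as fluorescence at 594 nm, inhibition of TDG activity.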
Description: Inhibition of TDG by quantifying inhibition of TDG-mediated cleavage and dissociation of quenched duplex DNA oligonucleotides, measured as fluorescence at 594 nm. To generate a functional strand incision and increase turn-over this assay is coupled to APE1.

Sequence of DNA-3-methyladenine glycosylase (Homo sapiens) (P29372 whole entry): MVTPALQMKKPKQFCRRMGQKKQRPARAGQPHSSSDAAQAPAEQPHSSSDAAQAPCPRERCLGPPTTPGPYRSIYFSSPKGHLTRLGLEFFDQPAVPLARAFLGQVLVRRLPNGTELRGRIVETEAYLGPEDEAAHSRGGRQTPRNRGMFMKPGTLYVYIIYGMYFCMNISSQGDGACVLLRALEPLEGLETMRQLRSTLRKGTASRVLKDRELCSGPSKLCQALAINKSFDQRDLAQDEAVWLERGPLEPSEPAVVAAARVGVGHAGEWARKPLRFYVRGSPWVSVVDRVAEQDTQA
Sequence of N-glycosylase/DNA lyase (Homo sapiens) (O15527 whole entry): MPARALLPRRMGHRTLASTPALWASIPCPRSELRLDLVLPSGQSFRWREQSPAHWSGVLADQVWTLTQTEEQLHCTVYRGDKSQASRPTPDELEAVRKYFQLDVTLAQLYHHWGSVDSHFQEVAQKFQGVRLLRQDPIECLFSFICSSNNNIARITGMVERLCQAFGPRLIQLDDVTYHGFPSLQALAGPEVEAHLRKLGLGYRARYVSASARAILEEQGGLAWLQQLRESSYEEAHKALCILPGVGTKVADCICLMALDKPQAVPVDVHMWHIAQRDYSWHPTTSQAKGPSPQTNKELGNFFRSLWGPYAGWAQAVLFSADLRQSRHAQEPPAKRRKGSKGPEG
Sequence of Uracil-DNA glycosylase (Homo sapiens) (P13051 whole entry): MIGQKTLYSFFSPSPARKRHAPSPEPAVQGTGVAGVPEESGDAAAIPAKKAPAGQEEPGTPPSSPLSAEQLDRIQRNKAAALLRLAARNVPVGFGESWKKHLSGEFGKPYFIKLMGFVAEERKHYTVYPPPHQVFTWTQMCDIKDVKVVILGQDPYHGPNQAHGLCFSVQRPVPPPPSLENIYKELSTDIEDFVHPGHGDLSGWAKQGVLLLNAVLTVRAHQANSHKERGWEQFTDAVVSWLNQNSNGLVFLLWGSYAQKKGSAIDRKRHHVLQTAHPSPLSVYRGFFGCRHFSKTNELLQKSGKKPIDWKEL
Sequence of G/T mismatch-specific thymine DNA glycosylase (Homo sapiens) (Q13569 whole entry): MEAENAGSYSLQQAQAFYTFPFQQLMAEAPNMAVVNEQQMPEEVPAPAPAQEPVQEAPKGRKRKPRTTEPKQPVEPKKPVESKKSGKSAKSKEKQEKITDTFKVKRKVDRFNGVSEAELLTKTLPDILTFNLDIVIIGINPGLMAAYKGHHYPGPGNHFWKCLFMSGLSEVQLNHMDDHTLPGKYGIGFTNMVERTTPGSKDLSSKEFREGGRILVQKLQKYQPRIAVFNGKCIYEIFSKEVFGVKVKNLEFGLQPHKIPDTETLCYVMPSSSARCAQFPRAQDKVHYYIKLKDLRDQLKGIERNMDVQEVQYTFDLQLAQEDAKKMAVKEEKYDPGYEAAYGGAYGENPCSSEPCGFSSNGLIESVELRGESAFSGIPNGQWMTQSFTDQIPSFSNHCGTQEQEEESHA
Sequence of Methyl-CpG-binding domain protein 4 (Homo sapiens) (O95243 whole entry, the tested form may be a part): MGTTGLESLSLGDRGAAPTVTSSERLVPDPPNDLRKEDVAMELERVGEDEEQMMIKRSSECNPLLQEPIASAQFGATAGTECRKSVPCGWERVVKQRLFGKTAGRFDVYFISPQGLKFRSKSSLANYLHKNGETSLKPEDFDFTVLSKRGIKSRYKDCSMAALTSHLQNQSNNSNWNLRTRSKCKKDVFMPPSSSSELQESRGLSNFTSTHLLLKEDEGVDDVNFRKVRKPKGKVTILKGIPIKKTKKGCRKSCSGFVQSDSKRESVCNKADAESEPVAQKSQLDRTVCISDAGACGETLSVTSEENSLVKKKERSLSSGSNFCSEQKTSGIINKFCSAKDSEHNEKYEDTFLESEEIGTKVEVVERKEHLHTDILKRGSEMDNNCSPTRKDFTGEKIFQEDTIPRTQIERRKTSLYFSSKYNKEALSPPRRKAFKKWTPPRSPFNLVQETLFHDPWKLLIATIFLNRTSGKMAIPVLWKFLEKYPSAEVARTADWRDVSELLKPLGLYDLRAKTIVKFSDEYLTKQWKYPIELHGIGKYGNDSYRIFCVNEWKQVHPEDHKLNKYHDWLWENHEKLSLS
Sequence of Endonuclease 8-like 1 (Homo sapiens) (Q96FI4 whole entry): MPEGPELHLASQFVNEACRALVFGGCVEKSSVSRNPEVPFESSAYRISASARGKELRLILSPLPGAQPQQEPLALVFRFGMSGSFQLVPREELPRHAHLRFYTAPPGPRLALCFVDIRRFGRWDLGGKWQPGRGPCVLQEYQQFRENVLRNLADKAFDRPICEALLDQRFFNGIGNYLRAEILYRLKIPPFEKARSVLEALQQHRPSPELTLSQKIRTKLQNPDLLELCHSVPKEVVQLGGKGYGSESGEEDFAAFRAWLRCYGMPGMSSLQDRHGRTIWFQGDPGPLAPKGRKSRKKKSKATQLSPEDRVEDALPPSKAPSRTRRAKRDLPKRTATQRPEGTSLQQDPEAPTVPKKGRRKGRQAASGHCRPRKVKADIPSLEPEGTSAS

What is called inhibition is the drop in the measured response relative to a control, in per cent. `FC(F)(F)c1ccc(N2CCNCC2)nc1Cl`: the inhibition was 8.14% in assay [1]; -0.34% in [2]; -1.62% in assay [3] (Hit No); -2.44% in [4]; -4.95% in assay [5]; 11.3% in assay [6]. Further, the inhibition is 12.7% in assay [7], -3.1% in assay [8] and 27.6% in assay [9].

`COc1cc2nc(N(C)CCCNC(=O)C3CCCO3)nc(N)c2cc1OC` (stereo not given): the inhibition in assay [1] is 21.4%; in assay [2], 34.2%; in [3] (Hit Yes) it was 32.3%; in [4], -4.94%; in assay [5] it was -9.24%; in assay [6] it was 27.8%. Also, the figures for the inhibition in assay [7], in assay [8] and in assay [9] were 25.4%, -3.84% and 16.1%, respectively.

Take `CCCCC(=O)N(Cc1ccc(-c2ccccc2C(=O)O)cc1)c1ccccc1`: the inhibition in [1] is 11.5%; in [2], 18%; in assay [3] (Hit No) it was -3.15%; in assay [4], -5.18%; in assay [5], -7.96%; in assay [6] it was 7.17%. For the same molecule, the inhibition in [7] came out at 33.4%; in assay [8], 1.79%; in assay [9] it was 23.9%.

With `Clc1ccc(C2CC3CCC2N3)cn1` (stereo not given), the inhibition in assay [1] was -6.44%; in [2] it was -3.17%; in assay [3] (Hit No) it was -3.41%; in assay [4] it was -9.39%; in assay [5] it was -8.75%; in [6] it was 7.17%. Further, the figures for the inhibition in [7], in assay [8] and in assay [9] were 11.8%, -1.03% and 20.8%, respectively.

On to `CCNC(=O)[C@H]1O[C@@H](n2cnc3c(N)nc(NCCc4ccc(CCC(=O)O)cc4)nc32)[C@H](O)[C@@H]1O`, for which the inhibition in assay [1] was -2.22%; in [2], 11.8%; in assay [3] (Hit No), -6.46%; in assay [4] it was -6.16%; in [5], -9.97%; in assay [6], 1.39%. Also, the inhibition in assay [7] worked out at 17.2%; in assay [8], 3.42%; in [9], 0.161%.

As for `C[S+]([O-])c1ccc(-c2nc(-c3ccc(F)cc3)c(-c3ccncc3)[nH]2)cc1` (stereo not given), the inhibition is 10.5% in assay [1]; 13.8% in assay [2]; -0.483% in assay [3] (Hit No); -3.45% in assay [4]; 6.37% in assay [5]; 15.1% in assay [6]. The inhibition in assay [7] is 16.5%; in [8] it was -8.51%; in assay [9] it was 17.7%.

For `NCCCCN(Cc1nc2ccccc2[nH]1)[C@H]1CCCc2cccnc21`, the inhibition is -6.17% in assay [1]; 5.47% in assay [2]; 6.78% in assay [3] (Hit No); -4.22% in assay [4]; -6.41% in assay [5]; -0.258% in [6]. The inhibition in assay [7] was -9.01%; in [8], 10.7%; in assay [9], 0.598%.

Take `CCCCC/C=C\C/C=C\C/C=C\C/C=C\CCCC(=O)OC(CO)CO`: the inhibition in assay [1] was 3.34%; in assay [2], 14.2%; in assay [3] (Hit No), 12%; in [4], -9.11%; in assay [5] it was 1.41%; in [6] it was 9.99%. For the same molecule, the inhibition amounted to 28.4% in assay [7], 4.39% in [8] and 27% in assay [9].

As to `CC1(C)CC(=O)c2c(SCCO)sc(-c3nccs3)c2C1`, the inhibition in assay [1] was 8.86%; in assay [2], 15.5%; in assay [3] (Hit No) it was 1.94%; in assay [4] it was -4.5%; in [5], -7.89%; in assay [6] it was 28.6%. Also, the inhibition is 23.5% in assay [7], -2.21% in assay [8] and 13.8% in [9].

For the molecule `CCCCCCCCCCCCCCC[C@@H](O)[C@@H](N)COP(=O)(O)O`, the inhibition in [1] was 9.63%; in [2] it was -9.71%; in assay [3] (Hit No) it was 4.76%; in [4] it was -5.95%; in assay [5], -0.598%; in [6], 5.59%. The figures for the inhibition in assay [7], in [8] and in assay [9] were -8.45%, 6.76% and 3%, respectively.

Consider `CN(C)CCn1cc(S(=O)(=O)c2cccc(F)c2)c2cccnc21`, for which the inhibition is 4.26% in assay [1]; 1.09% in [2]; -6.74% in assay [4]; -9.57% in assay [5]; 10.5% in [6]; 7% in assay [7]. Besides, the inhibition in assay [8] was -6.66%; in assay [9] it was 2.84%.

As for `O=C(Nc1ccc(Cl)cc1)N[C@@H](Cc1ccccc1)C(=O)N1CCCCC1`, the inhibition was 30.7% in assay [1]; 13.5% in [2]; -3.15% in assay [3] (Hit No); -3.64% in assay [4]; -1.34% in [5]; 17.9% in [6]. The inhibition came to 27.2% in assay [7], 0.898% in [8] and 22.9% in assay [9].

As to `Cc1cc(NC(=O)NCCN2CCC(O)(Cc3ccccc3)CC2)c2ccccc2n1`, the inhibition was -4.68% in assay [1]; 17.8% in [2]; -1.88% in assay [3] (Hit No); -0.672% in assay [4]; -6.59% in assay [5]; -6.04% in [6]. The inhibition in assay [7] turned out to be 28.9%; in [9], 11.4%.

Consider `Cc1nccn1CC1CCc2c(c3ccccc3n2C)C1=O` (stereo not given), for which the inhibition was 13.8% in [1]; 19% in [2]; -9.34% in assay [4]; -7.85% in assay [5]; 22% in assay [6]; 17% in assay [7]. Moreover, the inhibition in [8] came out at 6.23%; in assay [9], 0.598%.

`Cn1c(=O)n(CCCO)c(=O)c2c1nc(Oc1cccc(Cl)c1)n2Cc1ccc(Cl)cc1`: the inhibition in assay [1] was 11.6%; in assay [2] it was 15.9%; in [4], 0.363%; in assay [5], -1.16%; in assay [6] it was 12.1%; in assay [7], 23.2%. Besides, the inhibition in assay [8] was found to be 2.53%; in [9], 8.76%.

Consider `O=c1ccc2c(OCCCCOc3ccccc3)c3ccoc3cc2o1`, for which the inhibition in [1] is 29.9%; in assay [2], 3.71%; in assay [4], -5.58%; in [5], 3.75%; in assay [6], 3.87%; in [7] it was 11.1%. The inhibition was -4.29% in assay [8] and -7.24% in [9].

Take `Nc1nc(Nc2ccccc2)nc2c1ncn2[C@@H]1O[C@H](CO)[C@@H](O)[C@H]1O`: the inhibition in assay [1] was -7.65%; in [2] it was -1.27%; in [4], -5.2%; in assay [5], 6.96%; in assay [6], 1.39%; in assay [7] it was 11.6%. Moreover, the inhibition in assay [8] is -6.51%; in assay [9], 10.5%.

For `CS(=O)(=O)Nc1c(O)ccc2c1CCCC2C1=NCCN1` (stereo not given), the inhibition in assay [1] was 2.87%; in assay [2], 23.1%; in assay [4], -0.201%; in [5] it was -9.24%; in [6], 13.8%; in assay [7] it was 17.6%. For the same molecule, the results for the inhibition in assay [8] and in [9] were 2.08% and -0.654%, respectively.
